From US20070197485A1, “Therapy and Use of Compounds in Therapy” (MAX-DELBRUECK-CENTRUM FUR MOLEKULARE MEDIZIN, priority 1999, published 2007)

Assays:
[1] = system: TNF production in whole blood of patients with cachexia; experiment: Milenia whole blood assay, TNF production (in vitro addition of UDCA / BPi); format: cell-based, human
Description: (§1) We have tested the ability of ursodeoxycholic acid (UDCA, FALK Pharma GmbH) and BPi to inhibit LPS-mediated TNF production in whole blood of patients with cachexia. We studied 4 patients with cachexia due to liver cirrhosis. The patients had all weight loss >7.5% compared to their previous normal weight. […] All patients were studied twice on 2 subsequent days (day “−1” and day “0”), see FIG. 9 to 12.
(§2) Methods: Heparinized whole blood was diluted 1:10 with medium ±LPS (50 μg/ml), ±BPi (1 μg/ml), and ±UDCA (1 μg/ml-1 mg/ml) according to the manufacturer's recommendation (Milenia whole blood assay; DPC Biermann, Bad Nauheim, Germany) and incubated for 4 hours at 37° C. In the supernatant, we assessed concentrations of TNF and IL-6 using the semiautomated Immulite system (DPC-Biermann, Bad Nauheim, Germany).

[2] = system: IL6 production in whole blood of patients with cachexia; experiment: Milenia whole blood assay, IL6 production (in vitro addition of UDCA / BPi); format: cell-based, human
From the text: as §1
[…] In the supernatant, we assessed concentrations of TNF and IL-6 using the semiautomated Immulite system (DPC-Biermann, Bad Nauheim, Germany).

[3] = system: whole blood TNF production; experiment: Whole blood TNF production after therapeutic application of UDCA; format: in vivo, human; conditions: patient 4; after 2 days of UDCA treatment, 3 times 250 mg daily
Description: (§3) We have tested the ability of the therapeutic application of ursodeoxycholic acid (UDCA, FALK Pharma GmbH) to lower plasma levels of TNF and IL6 and to lower spontaneous and LPS-stimulated whole blood cytokine production in patients with cachexia.
(§4) We studied in 2 patients with cachexia due to liver cirrhosis plasma cytokine levels after treatment with 3 times 250 mg daily UDCA (FALK Pharma GmbH). The patients had weight loss >7.5% compared to their previous normal weight. The patients were studied at baseline prior to the treatment on 2 subsequent days (day ”−1” and day “0”), and then they were restudied on day 1 (“1”), day 2 (“2”), and day 5 (“5”), see FIGS. 9 and 12.
as §2, with “pg/ml), ±BPI” for “μg/ml), ±BPi”, “ug/ml),” for “μg/ml),”, “ug/ml-1” for “μg/ml-1”, “supernatant and in plasma,” for “supernatant,”

[4] = system: whole blood IL6 production; experiment: Whole blood IL6 production after therapeutic application of UDCA; format: in vivo, human; conditions: patient 4; after 2 days of UDCA treatment, 3 times 250 mg daily
Description: as §3, §4
as §2, with “pg/ml), ±BPI” for “μg/ml), ±BPi”, “ug/ml),” for “μg/ml),”, “ug/ml-1” for “μg/ml-1”, “supernatant and in plasma,” for “supernatant,”

[5] = system: monocyte generated cytokine production in response to LPS; conditions: in vitro, in the concentrations used; cited from earlier work
[6] = system: LPS-induced TNF-α release; experiment: LPS-induced TNF-α release with lipoproteins / LBP (FIG. 4 to 7); format: cell-based; conditions: addition of LBP to a lipoprotein containing serum (FIG. 7)
[7] = 100 ug/ml UDCA, whole blood of patients with cachexia due to liver cirrhosis, 4 hours at 37° C
[8] = 1 mg/ml UDCA, whole blood of patients with cachexia due to liver cirrhosis diluted 1:10, 4 hours at 37° C, on average
[9] = BPi 1 ug/ml, in 6 of 8 experiments, or towards non-detectability, 2 cases stable, p<0.05
[10] = BPi 1 ug/ml, whole blood of patients with cachexia due to liver cirrhosis, no LPS

C[C@H](CCC(=O)O)[C@H]1CC[C@H]2[C@@H]3[C@@H](O)C[C@@H]4C[C@H](O)CC[C@]4(C)[C@H]3CC[C@]12C [UDCA, ursodeoxycholic acid]
reduction of LPS-stimulated TNF production [1, 7]: 42% | reduction of LPS-stimulated TNF production [1, 8]: > 99% | reduction of LPS-stimulated IL6 production [2, 7]: 13% | reduction of LPS-stimulated IL6 production [2, 8]: 97% | LPS-stimulated TNF production lowered [3]: 43.5% | LPS-stimulated IL6 production lowered [4]: 39.6%

C[C@H](CCC(=O)O)[C@H]1CC[C@H]2[C@@H]3[C@H](O)C[C@@H]4C[C@H](O)CC[C@]4(C)[C@H]3CC[C@]12C [chenodeoxycholic acid]
effect on monocyte generated cytokine production in response to LPS [5]: less effective

B1: LBP: LPS binding protein (protein, UniProt P18428 26-481, looked up)
Lipopolysaccharide-binding …: ANPGLVARITDKGLQYAAQEGLLALQSELLRITLPDFTGDLRIPHVGRGRYEFHSLNIHSCELLHSALRPVPGQGLSLSISDSSIRVQGRWKVRKSFFKLQGSFDVSVKGISISVNLLLGSESSGRPTVTASSCSSDIADVEVDMSGDLGWLLNLFHNQIESKFQKVLESRICEMIQKSVSSDLQPYLQTLPVTTEIDSFADIDYSLVEAPRATAQMLEVMFKGEIFHRNHRSPVTLLAAVMSLPEEHNKMVYFAISDYVFNTASLVYHEEGYLNFSITDDMIPPDSNIRLTTKSFRPFVPRLARLYPNMNLELQGSVPSAPLLNFSPGNLSVDPYMEIDAFVLLPSSSKEPVFRLSVATNVSATLTFNTSKITGFLKPGKVKVELKESKVGLFNAELLEALLNYYILNTFYPKFNDKLAEGFPLPLLKRVQLYDLGLQIHKDFLFLGANVQYMRV
LPS-mediated TNF-α production [6]: reduced

B2: BPi: BPi, agent tested to inhibit LPS-mediated TNF production in whole blood; not spelled out in the text (protein, UniProt P17213 32-487, looked up)
Bactericidal …: VNPGVVVRISQKGLDYASQQGTAALQKELKRIKIPDYSDSFKIKHLGKGHYSFYSMDIREFQLPSSQISMVPNVGLKFSISNANIKISGKWKAQKRFLKMSGNFDLSIEGMSISADLKLGSNPTSGKPTITCSSCSSHINSVHVHISKSKVGWLIQLFHKKIESALRNKMNSQVCEKVTNSVSSELQPYFQTLPVMTKIDSVAGINYGLVAPPATTAETLDVQMKGEFYSENHHNPPPFAPPVMEFPAAHDRMVYLGLSDYFFNTAGLVYQEAGVLKMTLRDDMIPKESKFRLTTKFFGTFLPEVAKKFPNMKIQIHVSASTPPHLSVQPTGLTFYPAVDVQAFAVLPNSSLASLFLIGMHTTGSMEVSAESNRLVGELKLDRLLLELKHSNIGPFPVELLQDIMNYIVPILVLPRVNEKLQKGFPLPTPARVQLYNVVLQPHQNFLLFGADVVYK
lowering of spontaneous TNF levels [1, 9]: at least 5 pg/mi | spontaneous production of TNF [1, 10]: reduced significantly | lowering of spontaneous IL6 levels [2, 9]: at least 5 pg/mi | spontaneous production of IL6 [2, 10]: reduced significantly
